Key:
Chenopodium album = assay: greenhouse post-emergence herbicidal test; assay type: in vivo, Chenopodium album (lamb's-quarters); conditions: application rates of 0.25 or 0.125 kg/ha, 2 to 4 weeks
From the text: (§1) The cultivation containers used were plastic flower pots containing loamy sand with approximately 3.0% of humus as the substrate. The seeds of the test plants were sown separately for each species.
(§2) For the post-emergence treatment, the test plants were first grown to a height of from 3 to 15 cm, depending on the plant habit, and only then treated with the active compounds which had been suspended or emulsified in water. The test plants were for this purpose either sown directly and grown in the same containers, or they were first grown separately as seedlings and transplanted into the test containers a few days prior to treatment. The application rate for the post-emergence treatment was 0.25 or 0.125 kg of a.s. (active substance)/ha.
(§3) Depending on the species, the plants were kept at 10-25° C. or 20-35° C. The test period extended over 2 to 4 weeks. During this time, the plants were tended, and their response to the individual treatments was evaluated.
(§4) The evaluation was carried out using a scale from 0 to 100. 100 means no emergence of the plants, or complete destruction of at least the aerial parts and 0 means no damage, or normal course of growth.
(§5) The plants used in the greenhouse experiments were of the following species: […]

Avena fatua = assay: greenhouse post-emergence herbicidal test; assay type: in vivo, Avena fatua (wild oat); conditions: application rates of 0.25 or 0.125 kg/ha, 2 to 4 weeks
From the text: as §1, §2, §3, §4, §5

Polygonum persicaria = assay: greenhouse post-emergence herbicidal test; assay type: in vivo, Polygonum persicaria (lady's-thumb); conditions: application rates of 0.25 or 0.125 kg/ha, 2 to 4 weeks
From the text: as §1, §2, §3, §4, §5

Brachiaria plantaginea = assay: greenhouse post-emergence herbicidal test; assay type: in vivo, Brachiaria plantaginea (alexandergrass); conditions: application rates of 0.25 or 0.125 kg/ha, 2 to 4 weeks
From the text: as §1, §2, §3, §4, §5

Echinochloa crus galli = assay: greenhouse post-emergence herbicidal test; assay type: in vivo, Echinochloa crus galli (barnyardgrass); conditions: application rates of 0.25 or 0.125 kg/ha, 2 to 4 weeks
From the text: as §1, §2, §3, §4, §5

Abutilon theophrasti = assay: greenhouse post-emergence herbicidal test; assay type: in vivo, Abutilon theophrasti (velvet leaf); conditions: application rates of 0.25 or 0.125 kg/ha, 2 to 4 weeks
From the text: as §1, §2, §3, §4, §5

SMILES | melting point [°C] | also measured
CSC1(C)CCC(=O)C(C(=O)c2ccc(S(C)(=O)=O)c(C3=NOC4CC34)c2C)=C1O (centres unmarked) [Compound 2.5] | 100 to 106 | –
Cc1c(C(=O)C2=C(O)C(C)(C)CCC2=O)ccc(S(C)(=O)=O)c1C1=NOC2(C)CC12 (centres unmarked) [Compound 2.14] | 120 to 130 | –
Cc1c(C(=O)C2=C(O)C(C)CC(C)C2=O)ccc(S(C)(=O)=O)c1C1=NOC2(C)CC12 (centres unmarked) [Compound 2.12] | 98 to 112 | –
Cc1c(C(=O)C2=C(O)CC(C)(C)CC2=O)ccc(S(C)(=O)=O)c1C1=NOC2(C)CC12 (centres unmarked) [Compound 2.8] | 112 to 120 | –
Cc1c(C(=O)C2=C(O)CC(C)(C)CC2=O)ccc(S(C)(=O)=O)c1C1=NOC2CC12 (centres unmarked) [Compound 2.1] | 102 | post-emergence action (Chenopodium album): very good; post-emergence action (Avena fatua): very good; post-emergence action (Polygonum persicaria): very good; post-emergence action (Brachiaria plantaginea): very good; post-emergence action (Echinochloa crus galli): very good; post-emergence action (Abutilon theophrasti): very good
Cc1c(C(=O)C2=C(O)C(C)CC(C)C2=O)ccc(S(C)(=O)=O)c1C1=NOC2CC12 (centres unmarked) [Compound 2.3, 2-[2-Methyl-3-(2-oxa-3-azabicyclo[3.1.0]hex-3-en-4-yl)-4-methylsulfonylbenzoyl]-1-hydroxy-4,6-dimethylcyclohex-1-en-3-one] | 90 to 96 | –
CC1(C)CC(=O)C(C(=O)c2ccc(S(C)(=O)=O)c(C3=NOC4CC34)c2Cl)=C(O)C1 (centres unmarked) [Compound 2.7] | 101 to 105 | –
Cc1c(C(=O)C2=C(O)CC(C)(C)CC2=O)ccc(S(C)(=O)=O)c1C1=NOC2CC12C (centres unmarked) [Compound 2.13] | 120 to 127 | –

— patent US6667333B2, “Herbicidal 3-(4,5 dihydroisoxazole- 3 yl) substituted benzoycyclohexenone derivatives” (BASF Aktiengesellschaft, priority 1999, dated 2003)
